Values of other authors, collected in patent publication US20240122962A1, “PHARMACEUTICAL COMPOSITION FOR USE IN THE PREVENTION OR TREATMENT OF A CONDITION ASSOCIATED WITH A REDUCTION IN THE NUMBER OF LACTOBACILLI IN THE VAGINA” (priority 2020, published 2024).

System: bacterial vaginosis (BV)
Conditions: 7-day oral treatment, after 1 month

Cc1ncc([N+](=O)[O-])n1CCO [Metronidazole, metronidazole]
cure rate: 80-90%
